Experimental data taken from publication PMC9228955, “Synthesis, Physicochemical, Labeling and In Vivo Characterization of ^44Sc-Labeled DO3AM-NI as a Hypoxia-Sensitive PET Probe” (Pharmaceuticals, 2022).

How the values were obtained:
[1] = Formation rate of Sc(DO3AM-NI) at acidic pH followed by 1H and 45Sc NMR; format: physicochemical; settings: pH = 1.52, 25 °C, 3.80 mM ligand, 4.90 mM ScCl3
Protocol: This is promising for the labeling studies, yet it also underlines that the so-called “batch-method” must be applied in very acidic samples for the determination of the stability constant of the Sc(DO3AM-NI) chelate.
^1H- and ^45Sc-NMR measurements (400 MHz and 97 MHz, respectively) were performed with a Bruker DRX 400 (9.4 T) spectrometer equipped with a Bruker VT-1000 thermocontroller and a BB inverse z-gradient probe (5 mm). The kinetic experiments were performed at 25 °C, whereas the equilibrium studies were performed at 37 °C in aqueous solutions using D2O (in capillary) for locking. Typical parameters of ^45Sc-NMR measurements used were pulse length p1 = 15.6 μs (90°), relaxation delay d1 = 0.1 s and 128 scans. The formation reaction of the Sc(DO3AM-NI) complex was followed by ^1H- and ^45Sc-NMR spectroscopy in a sample containing 3.80 mM ligand and 4.90 mM ScCl3 with a total acid concentration corresponding to a pH of 1.54. […] Actually, the intensity of the ^45Sc-NMR signal of Sc(III)aq could precisely be measured while that of the broad signal corresponding to the Sc(DO3AM-NI) complex could not. […] The molar integral values of the ^45Sc-NMR signal of Sc(III)aq were determined by recording the ^45Sc-NMR spectra of a 50 mM ScCl3 solution containing 0.015 M HCl as a reference sample. […]

[2] = Stability constant of Sc(III) complex by 1H and 45Sc NMR batch samples and pH-potentiometric titration; pSc calculation; format: physicochemical; settings: 0.15 M NaCl, 37 °C
Protocol: The stability constant of the Sc(DO3AM-NI) complex was assessed by ^1H and ^45Sc-NMR studies using samples prepared in the 0.055–0.195 M acid concentration range. […] Absence of protonation and the presence of a ternary hydroxydo species formation with KScL•OH = 10.88(5) were detected at our experimental conditions. The NMR samples contained 3.32 mM ligand, ScCl3 and a constant ionic strength of 0.15 M NaCl. The samples were thermostated at 37 °C, and their ^1H- and ^45Sc-NMR spectra were recorded after 60 days. In order to ensure that the equilibrium in the samples was attained, the ^1H and ^45Sc-NMR measurements were repeated again 90 days later. The spectra were practically identical with the spectra recorded at 60 days (Figures S4 and S5). As expected, the thermodynamic stability constant of the Sc(DO3AM-NI) complex (log KScL = 22.36(4)) was considerably lower than those of Sc(III) complexes formed with DOTA, DTPA or AAZTA ligands (Table 1). A moderate decrease in terms of thermodynamic stability constants was already observed for the complexes of DO3A-monamides formed with Gd(III) ions in comparison to the stability of parent Gd(DOTA)^− chelate. Despite the lower stability constant of the complex, the Sc(III) ion was complexed completely around pH = 2.0 (in a millimolar concentration range, see Figure 2). However, it might be misleading to directly compare the stability constants of the complexes formed by ligands of different basicity (as it depends on the basicity of the ligand); therefore, we calculated and compared the pSc values (which could be treated as conditional constants) for the complexes shown in Table 1 by taking the protonation constants of ligands, the stability constants of the complex species present in solution and the hydrolysis of the Sc(III) ion (according to Ref. [23]: log βSc(OH) = −4.3, log βSc(OH)2 = −9.7, log βSc(OH)3 = −16.1, log βSc(OH)4 = −26.0 and log βSc2(OH)4 = −6.0) into account.
The equilibrium measurements were performed at constant ionic strength maintained by 0.15 M NaCl at 37 °C. For determining the protonation constants of DO3AM-NI, two parallel pH-potentiometric titrations were performed with 0.1611 M NaOH in a 5.00 cm^3 sample containing the ligand at the concentration of 2.76 mM. The stability constant of Sc(DO3AM-NI) was assessed by ^1H and ^45Sc NMR in 0.7 mL “batch” samples containing the metal and the ligand at 3.32 mM and different concentrations of strong acid (0.05–0.20 M) aged 90 days (see below). The formation of protonated and ternary hydroxydo complex species was probed by pH-potentiometric titration by titrating the preformed complex (at a concentration of 1.95 mM) with standardized NaOH solution. For the calculation of the logKMH-1L value, the VNaOH–pH data used were obtained in the pH range 1.68–11.85. The pH-potentiometric titrations were carried out with a Metrohm 785 DMP Titrino titration workstation with the use of a Metrohm-6.0233.100-combined electrode calibrated via a two-point calibration routine using KH-phthalate (pH = 4.005) and borax (pH = 9.177) buffers. The titrated samples were stirred with a magnetic stirrer, and N2 gas was bubbled through the solutions to avoid the effect of CO2. For the calculation of [H^+] from the measured pH values, the method proposed by Irving et al. was applied. For this, a 0.01M HCl solution was titrated with the standardized NaOH solution in the presence of 0.15 M NaCl ionic strength at 37 °C. The differences between the measured (pHread) and calculated pH (-log[H^+]) values were used to obtain the equilibrium H^+ concentration from the pHmeas values during the titrations. […] For the calculation of the equilibrium constants, the PSEQUAD program was used.
^1H- and ^45Sc-NMR measurements (400 MHz and 97 MHz, respectively) were performed with a Bruker DRX 400 (9.4 T) spectrometer equipped with a Bruker VT-1000 thermocontroller and a BB inverse z-gradient probe (5 mm). […]

Question: For `O=C([O-])CN1CCN(CC(=O)[O-])CCN(CC(=O)NCCn2ccnc2[N+](=O)[O-])CCN(CC(=O)[O-])CC1.[Sc+3]` [Sc(DO3AM-NI)], which “time for complex formation to reach equilibrium” value [1] is on record?
Answer: Its value is “about twelve”.

Question: What about the “log KScL•OH (ternary hydroxydo species)” value [2] of the same compound?
Answer: Its value is 10.88(5).

Question: And the “log KSc•L (stability constant of Sc(III) complex)” value [2]?
Answer: Its value is 22.36(4).

Question: And the “pH around which the Sc(III) ion is complexed completely” value ([2]; millimolar concentration range)?
Answer: The value was about 2.0.
